From patent US9469650B2, “Melampomagnolide B derivatives” (BOARD OF TRUSTEES OF THE UNIVERSITY OF ARKANSAS, priority 2013, dated 2016)

Legend:
TK-10 = assay: panel of 60 human tumor cell lines, growth inhibition (Renal Cancer); settings: TK-10
MCF7 = assay: panel of 60 human tumor cell lines, growth inhibition (Breast Cancer); settings: MCF7
NCI-H522 = assay: panel of 60 human tumor cell lines, growth inhibition (Non-Small Cell Lung Cancer); settings: NCI-H522
SK-OV-3 = assay: panel of 60 human tumor cell lines, growth inhibition (Ovarian Cancer); settings: SK-OV-3
IGROV1 = assay: as above; settings: IGROVI
CCRF-CEM = assay: panel of 60 human tumor cell lines, growth inhibition (Leukemia)
LOX IMVI = assay: panel of 60 human tumor cell lines, growth inhibition (Melanoma)
NCI-H23 = assay: panel of 60 human tumor cell lines, growth inhibition (Non-Small Cell Lung Cancer)
OVCAR-8 = assay: panel of 60 human tumor cell lines, growth inhibition (Ovarian Cancer); settings: OVCAR-8
CAKI-1 = assay: panel of 60 human tumor cell lines, growth inhibition (Renal Cancer); settings: CAKI-1
HT29 = assay: panel of 60 human tumor cell lines, growth inhibition (Colon Cancer); settings: HT29
M14 = assay: panel of 60 human tumor cell lines, growth inhibition (Melanoma); settings: M14
SF-268 = assay: panel of 60 human tumor cell lines, growth inhibition (CNS Cancer); settings: SF-268
OVCAR-5 = assay: panel of 60 human tumor cell lines, growth inhibition (Ovarian Cancer); settings: OVCAR-5
SW-620 = assay: panel of 60 human tumor cell lines, growth inhibition (Colon Cancer); settings: SW-620
SK-MEL-2 = assay: panel of 60 human tumor cell lines, growth inhibition (Melanoma); settings: SK-MEL-2
MDA-MB-231/ATCC = assay: panel of 60 human tumor cell lines, growth inhibition (Breast Cancer); settings: MDA-MB-231/ATCC
A549/ATCC = assay: panel of 60 human tumor cell lines, growth inhibition (Non-Small Cell Lung Cancer); settings: A549/ATCC

C=C1C(=O)O[C@H]2[C@H]1CC/C(COC(=O)NC)=C\CC[C@@]1(C)O[C@@H]21 [JVM 2-57]
Percent Growth (TK-10; Log10 Concentration −4.0): −95% | Percent Growth (TK-10; Log10 Concentration −5.0): −5% | Percent Growth (TK-10; Log10 Concentration −6.0): 96% | Percent Growth (TK-10; Log10 Concentration −7.0): 98% | Percent Growth (TK-10; Log10 Concentration −8.0): 94% | GI50 (TK-10; NCI five dose): 2.86 µM | TGI (TK-10; NCI five dose): 8.97E−6 | Percent Growth (MCF7; Log10 Concentration −4.0): −75% | Percent Growth (MCF7; Log10 Concentration −5.0): 4% | Percent Growth (MCF7; Log10 Concentration −6.0): 83% | Percent Growth (MCF7; Log10 Concentration −7.0): 88% | Percent Growth (MCF7; Log10 Concentration −8.0): 94% | GI50 (MCF7; NCI five dose): 2.61 µM | TGI (MCF7; NCI five dose): 1.11E−5 | Percent Growth (NCI-H522; Log10 Concentration −4.0): −74% | Percent Growth (NCI-H522; Log10 Concentration −5.0): −73% | Percent Growth (NCI-H522; Log10 Concentration −6.0): 68% | Percent Growth (NCI-H522; Log10 Concentration −7.0): 87% | Percent Growth (NCI-H522; Log10 Concentration −8.0): 89% | GI50 (NCI-H522; NCI five dose): 1.33 µM | TGI (NCI-H522; NCI five dose): 3.02E−6 | Percent Growth (SK-OV-3; Log10 Concentration −4.0): −26% | Percent Growth (SK-OV-3; Log10 Concentration −5.0): 91% | Percent Growth (SK-OV-3; Log10 Concentration −6.0): 105% | Percent Growth (SK-OV-3; Log10 Concentration −7.0): 90% | Percent Growth (SK-OV-3; Log10 Concentration −8.0): 101% | GI50 (SK-OV-3; NCI five dose): 22.4 µM | TGI (SK-OV-3; NCI five dose): 5.96E−5 | Percent Growth (IGROV1; Log10 Concentration −4.0): −57% | Percent Growth (IGROV1; Log10 Concentration −5.0): 8% | Percent Growth (IGROV1; Log10 Concentration −6.0): 102% | Percent Growth (IGROV1; Log10 Concentration −7.0): 101% | Percent Growth (IGROV1; Log10 Concentration −8.0): 100% | GI50 (IGROV1; NCI five dose): 3.58 µM | TGI (IGROV1; NCI five dose): 1.32E−5 | Percent Growth (CCRF-CEM; Log10 Concentration −4.0): −53% | Percent Growth (CCRF-CEM; Log10 Concentration −5.0): −29% | Percent Growth (CCRF-CEM; Log10 Concentration −6.0): 59% | Percent Growth (CCRF-CEM; Log10 Concentration −7.0): 93% | Percent Growth (CCRF-CEM; Log10 Concentration −8.0): 97% | GI50 (CCRF-CEM; NCI five dose): 1.25 µM | TGI (CCRF-CEM; NCI five dose): 4.69E−6 | Percent Growth (LOX IMVI; Log10 Concentration −4.0): −91% | Percent Growth (LOX IMVI; Log10 Concentration −5.0): 21% | Percent Growth (LOX IMVI; Log10 Concentration −6.0): 92% | Percent Growth (LOX IMVI; Log10 Concentration −7.0): 95% | Percent Growth (LOX IMVI; Log10 Concentration −8.0): 96% | GI50 (LOX IMVI; NCI five dose): 3.92 µM | TGI (LOX IMVI; NCI five dose): 1.55E−5 | TGI (NCI-H23; NCI five dose): 2.04E−5 | Percent Growth (NCI-H23; NCI-H 3, Log10 Concentration −4.0): −68% | Percent Growth (NCI-H23; NCI-H 3, Log10 Concentration −5.0): 30% | Percent Growth (NCI-H23; NCI-H 3, Log10 Concentration −6.0): 92% | Percent Growth (NCI-H23; NCI-H 3, Log10 Concentration −7.0): 95% | Percent Growth (NCI-H23; NCI-H 3, Log10 Concentration −8.0): 94% | GI50 (NCI-H23; NCI-H 3, NCI five dose): 4.79 µM | Percent Growth (OVCAR-8; Log10 Concentration −4.0): −76% | Percent Growth (OVCAR-8; Log10 Concentration −5.0): 30% | Percent Growth (OVCAR-8; Log10 Concentration −6.0): 92% | Percent Growth (OVCAR-8; Log10 Concentration −7.0): 160% | Percent Growth (OVCAR-8; Log10 Concentration −8.0): 100% | GI50 (OVCAR-8; NCI five dose): 4.82 µM | TGI (OVCAR-8; NCI five dose): 1.93E−5 | Percent Growth (CAKI-1; Log10 Concentration −4.0): −97% | Percent Growth (CAKI-1; Log10 Concentration −5.0): 10% | Percent Growth (CAKI-1; Log10 Concentration −6.0): 82% | Percent Growth (CAKI-1; Log10 Concentration −7.0): 89% | Percent Growth (CAKI-1; Log10 Concentration −8.0): 96% | GI50 (CAKI-1; NCI five dose): 2.78 µM | TGI (CAKI-1; NCI five dose): 1.25E−5 | Percent Growth (HT29; Log10 Concentration −4.0): −73% | Percent Growth (HT29; Log10 Concentration −5.0): 21% | Percent Growth (HT29; Log10 Concentration −6.0): 104% | Percent Growth (HT29; Log10 Concentration −7.0): 96% | Percent Growth (HT29; Log10 Concentration −8.0): 101% | GI50 (HT29; NCI five dose): 4.5 µM | TGI (HT29; NCI five dose): 1.68E−5 | Percent Growth (M14; Log10 Concentration −4.0): −66% | Percent Growth (M14; Log10 Concentration −5.0): 27% | Percent Growth (M14; Log10 Concentration −6.0): 87% | Percent Growth (M14; Log10 Concentration −7.0): 89% | Percent Growth (M14; Log10 Concentration −8.0): 99% | GI50 (M14; NCI five dose): 4.1 µM | TGI (M14; NCI five dose): 1.93E−5 | Percent Growth (SF-268; Log10 Concentration −4.0): −73% | Percent Growth (SF-268; Log10 Concentration −5.0): 66% | Percent Growth (SF-268; Log10 Concentration −6.0): 92% | Percent Growth (SF-268; Log10 Concentration −7.0): 90% | Percent Growth (SF-268; Log10 Concentration −8.0): 92% | GI50 (SF-268; NCI five dose): 13 µM | TGI (SF-268; NCI five dose): 2.98E−5 | Percent Growth (OVCAR-5; Log10 Concentration −4.0): −90% | Percent Growth (OVCAR-5; Log10 Concentration −5.0): 24% | Percent Growth (OVCAR-5; Log10 Concentration −6.0): 86% | Percent Growth (OVCAR-5; Log10 Concentration −7.0): 84% | Percent Growth (OVCAR-5; Log10 Concentration −8.0): 93% | GI50 (OVCAR-5; NCI five dose): 3.82 µM | TGI (OVCAR-5; NCI five dose): 1.62E−5 | Percent Growth (SW-620; Log10 Concentration −4.0): −80% | Percent Growth (SW-620; Log10 Concentration −5.0): 6% | Percent Growth (SW-620; Log10 Concentration −6.0): 65% | Percent Growth (SW-620; Log10 Concentration −7.0): 99% | Percent Growth (SW-620; Log10 Concentration −8.0): 98% | GI50 (SW-620; NCI five dose): 1.8 µM | TGI (SW-620; NCI five dose): 1.16E−5 | Percent Growth (SK-MEL-2; Log10 Concentration −4.0): −70% | Percent Growth (SK-MEL-2; Log10 Concentration −5.0): 53% | Percent Growth (SK-MEL-2; Log10 Concentration −6.0): 99% | Percent Growth (SK-MEL-2; Log10 Concentration −7.0): 99% | Percent Growth (SK-MEL-2; Log10 Concentration −8.0): 96% | GI50 (SK-MEL-2; NCI five dose): 10.5 µM | TGI (SK-MEL-2; NCI five dose): 2.69E−5 | Percent Growth (MDA-MB-231/ATCC; Log10 Concentration −4.0): −77% | Percent Growth (MDA-MB-231/ATCC; Log10 Concentration −5.0): 31% | Percent Growth (MDA-MB-231/ATCC; Log10 Concentration −6.0): 86% | Percent Growth (MDA-MB-231/ATCC; Log10 Concentration −7.0): 89% | Percent Growth (MDA-MB-231/ATCC; Log10 Concentration −8.0): 106% | GI50 (MDA-MB-231/ATCC; NCI five dose): 4.48 µM | TGI (MDA-MB-231/ATCC; NCI five dose): 1.93E−5 | Percent Growth (A549/ATCC; Log10 Concentration −4.0): −88% | Percent Growth (A549/ATCC; Log10 Concentration −5.0): 71% | Percent Growth (A549/ATCC; Log10 Concentration −6.0): 95% | Percent Growth (A549/ATCC; Log10 Concentration −7.0): 99% | Percent Growth (A549/ATCC; Log10 Concentration −8.0): 100% | GI50 (A549/ATCC; NCI five dose): 13.5 µM | TGI (A549/ATCC; NCI five dose): 2.80E−5
